The test system of one data set is E. Coli ATCC 25922. In words: Minimum Inhibitory Concentration (MIC), modified microbroth dilution. The class given is cell-based. Particulars: E. coli (25922), overnight incubation (18 hours). On the technique in general: Dilution methods test growth across graded concentrations, often in twofold steps.
In data set [1] the test system is Staphylococcus aureus ATCC 27660. Described as above. The class given is cell-based. As to conditions: S. aureus (27660), overnight incubation (18 hours).
In data set [2] the test system is Enterococcus faecalis ATCC 29212. The data set is described as above. Particulars: E. faecalis (29212), overnight incubation (18 hours). Type of data set: cell-based.
The test system of data set [3] is Pseudomonas aeruginosa ATCC 10145. The data set is described as above. Type of data set: cell-based. Particulars: P. aeruginosa (10145), overnight incubation (18 hours).
The subject of data set [4] is Klebsiella pneumoniae ATCC 13883. The data set is described as above. As to conditions: K. pneumoniae (13883), overnight incubation (18 hours). Type of data set: cell-based.
In another data set the test system is NIH/3T3 cells, CRL-1658. Kind of data set: Cytotoxicity colorimetric (tetrazolium) assay. Type of data set: cell-based, mouse. As to conditions: NIH/3T3 cells; one hour with compound in serum-free media. The method, then: (§1) Cytotoxicity of the compounds was evaluated in a colorimetric assay using a transformed human liver cell line (HepG2, HB-8065) and an embryonic mouse cell line (NIH/3T3 cells, CRL-1658). This assay measures the bioreduction of a novel tetrazolium compound to a soluble formazan product by viable cells. HepG2 cells were seeded in 96 well plates at 2×10^4 cells/well in MEM medium with 10% fetal bovine serum (FBS) 24 hours prior to use. NIH/3T3 cells were seeded in 96 well plates at 2×10^4 cells/well in DMEM medium with 10% bovine calf serum (BCS) 24 hours prior to use. Cell monolayers were rinsed in serum-free media and incubated for one hour with compounds in serum-free media. After incubation, the media is replaced with serum supplemented media and live cells were measured using the Cell Titer 96 Aqueous […] Assay kit (Promega, Madison, Wis.). EC50 values were determined using a four parameter logistic equation: Y=Bottom+(Top-Bottom)/(1+10̂((LogEC50−X)*HillSlope)).
(§2) Actual results from a representative cytotoxicity assay are shown below in Table 2. Data is expressed as EC50 in μg/mL.

The next data set relates to HepG2, HB-8065. In words: Cytotoxicity colorimetric (tetrazolium) assay. The class given is cell-based, human. Particulars: HepG2 cells; one hour with compound in serum-free media. The method, then: as §1, §2
Data set [5] is described as follows: Cytotoxicity colorimetric (tetrazolium) assay. Type of data set: cell-based, mouse. Particulars: mouse, NIH/3T3 cells (CRL-1658), NIH/3T3 cells; one hour with compound in serum-free media. Here is the method: as §1, §2
Data set [6] is described as follows: Cytotoxicity colorimetric (tetrazolium) assay. Type of data set: cell-based, human. Particulars: human, HepG2 cells (HB-8065), HepG2 cells; one hour with compound in serum-free media. The method, then: as §1, §2

The record followed here is US20140308317A1, “Polymeric Compounds And Methods Of Making And Using The Same” (CELLCEUTIX CORPORATION, priority 2012, published 2014).

SMILES strings stand for the structures. In brackets after ≈: the same amount, converted by molar mass.

Regarding `NCCN(CCN)Cc1cccc(-c2ccc3sc4ccc(-c5cccc(CN(CCN)CCN)c5)cc4c3c2)c1` [Compound 174], in the data set with E. Coli ATCC 25922, the “MIC50 E. coli” value was 3.13 µg/mL (≈ 5.52 µM). For the same compound, in data set [1], the “MIC50 S. aureus” value is 0.195 µg/mL (≈ 0.344 µM). Moreover, the “MIC50 E. faecalis” value in data set [2] worked out at 3.13 µg/mL (≈ 5.52 µM). The “MIC50 P. Aeruginosa” value in data set [3] came to 3.13 µg/mL (≈ 5.52 µM). Further, the “MIC50 K. Pnuemnoiae” value in data set [4] came to 3.13 µg/mL (≈ 5.52 µM). The “EC50 NIH 3T3 (cytotoxicity)” value in the data set on NIH/3T3 cells, CRL-1658 was found to be 149 µg/mL (≈ 263 µM). In the data set with HepG2, HB-8065, the “EC50 HepG2 (cytotoxicity)” value was 171 µg/mL (≈ 302 µM).

As to `NCCN(CCN)Cc1cccc(-c2ccc3[nH]c4ccc(-c5cccc(CN(CCN)CCN)c5)cc4c3c2)c1` [Compound 179], the “MIC50 E. coli” value with E. Coli ATCC 25922 was 1.56 µg/mL (≈ 2.84 µM). The “MIC50 S. aureus” value in data set [1] is 1.56 µg/mL (≈ 2.84 µM). In addition, the “MIC50 E. faecalis” value in data set [2] is >50 µg/mL. For the same compound, in data set [3], the “MIC50 P. Aeruginosa” value stood at 25 µg/mL (≈ 45.5 µM). The “MIC50 K. Pnuemnoiae” value in data set [4] was >50 µg/mL. Moreover, the “EC50 NIH 3T3 (cytotoxicity)” value with NIH/3T3 cells, CRL-1658 amounted to 179 µg/mL (≈ 326 µM). Further, in the data set with HepG2, HB-8065, the “EC50 HepG2 (cytotoxicity)” value was 615 µg/mL (≈ 1120 µM).

Take `NCCCNC(=O)c1cc(C(=O)NCCCN)cc(-c2ccc3sc4ccc(-c5cc(C(=O)NCCCN)cc(C(=O)NCCCN)c5)cc4c3c2)c1` [Compound 171]: the “MIC50 E. coli” value against E. Coli ATCC 25922 is >100 µg/mL. Besides, the “MIC50 S. aureus” value in [1] is 6.25 µg/mL (≈ 8.48 µM). Moreover, the “MIC50 E. faecalis” value in [2] was >100 µg/mL. For the same compound, the “MIC50 P. Aeruginosa” value in [3] was >100 µg/mL. Moreover, the “MIC50 K. Pnuemnoiae” value in data set [4] was >100 µg/mL. The “EC50 NIH 3T3 (cytotoxicity)” value in the data set on NIH/3T3 cells, CRL-1658 worked out at 46.5 µg/mL (≈ 63.1 µM). Besides, in the data set on HepG2, HB-8065, the “EC50 HepG2 (cytotoxicity)” value was found to be 236 µg/mL (≈ 320 µM).

`N=C(N)NCCc1cc(CCNC(=N)N)cc(-c2cc(F)cc(-c3cc(F)cc(-c4cc(CCNC(=N)N)cc(CCNC(=N)N)c4)c3)c2)c1` [Compound 151]: in the data set with E. Coli ATCC 25922, the “MIC50 E. coli” value stood at 1.56 µg/mL (≈ 2.28 µM). Further, in [1], the “MIC50 S. aureus” value stood at 0.78 µg/mL (≈ 1.14 µM). Further, the “MIC50 E. faecalis” value in [2] was determined as 1.56 µg/mL (≈ 2.28 µM). For the same compound, in data set [3], the “MIC50 P. Aeruginosa” value stood at 12.5 µg/mL (≈ 18.3 µM). Further, the “MIC50 K. Pnuemnoiae” value in data set [4] is 3.13 µg/mL (≈ 4.58 µM). Moreover, in the data set on NIH/3T3 cells, CRL-1658, the “EC50 NIH 3T3 (cytotoxicity)” value turned out to be 72.14 µg/mL (≈ 106 µM). In addition, the “EC50 HepG2 (cytotoxicity)” value in the data set on HepG2, HB-8065 amounted to 254 µg/mL (≈ 372 µM).

Turning to `O=C(Nc1ccc(-c2ccnc(N3CCNCC3)c2)cc1F)Nc1ccc(-c2ccnc(N3CCNCC3)c2)cc1F` [Compound 142], the “MIC50 E. coli” value in the data set on E. Coli ATCC 25922 came out at 12.5 µg/mL (≈ 21.9 µM). Also, in data set [1], the “MIC50 S. aureus” value worked out at 100 µg/mL (≈ 175 µM). In [3], the “MIC50 P. Aeruginosa” value worked out at 25 µg/mL (≈ 43.8 µM). Further, the “MIC50 K. Pnuemnoiae” value in data set [4] was determined as 25 µg/mL (≈ 43.8 µM). For the same compound, the “EC50 HepG2 (cytotoxicity)” value in the data set on HepG2, HB-8065 was found to be 105 µg/mL (≈ 184 µM).

Turning to `N=C(N)NCC#Cc1cc(C#CCNC(=N)N)cc(-c2cc(-c3cc(C#CCNC(=N)N)cc(C#CCNC(=N)N)c3)cc(C(F)(F)F)c2)c1` [Compound 126], in the data set with E. Coli ATCC 25922, the “MIC50 E. coli” value was found to be 6.25 µg/mL (≈ 9.21 µM). In addition, the “MIC50 S. aureus” value in [1] was 1.56 µg/mL (≈ 2.3 µM). The “MIC50 E. faecalis” value in data set [2] worked out at 1.56 µg/mL (≈ 2.3 µM). Moreover, in data set [3], the “MIC50 P. Aeruginosa” value stood at 6.25 µg/mL (≈ 9.21 µM). Further, the “MIC50 K. Pnuemnoiae” value in data set [4] was determined as 6.25 µg/mL (≈ 9.21 µM). For the same compound, the “EC50 NIH 3T3 (cytotoxicity)” value in the data set on NIH/3T3 cells, CRL-1658 worked out at 59.7 µg/mL (≈ 88 µM).

`NCCC#Cc1cc(-c2cc(OCCCN)cc(-c3cc(C#CCCN)cc(C(F)(F)F)c3)c2)cc(C(F)(F)F)c1` [Compound 122]: in the data set with E. Coli ATCC 25922, the “MIC50 E. coli” value stood at 3.13 µg/mL (≈ 5.46 µM). In [1], the “MIC50 S. aureus” value was 1.56 µg/mL (≈ 2.72 µM). Moreover, the “MIC50 E. faecalis” value in [2] amounted to 1.56 µg/mL (≈ 2.72 µM). Moreover, in data set [3], the “MIC50 P. Aeruginosa” value worked out at 12.5 µg/mL (≈ 21.8 µM). Further, the “MIC50 K. Pnuemnoiae” value in data set [4] stood at 3.13 µg/mL (≈ 5.46 µM). In addition, the “EC50 NIH 3T3 (cytotoxicity)” value in the data set on NIH/3T3 cells, CRL-1658 turned out to be 14.5 µg/mL (≈ 25.3 µM).

Consider `NCC#Cc1cc(C#CCN)cc(-c2cc(-c3cc(C#CCN)cc(C#CCN)c3)cc(C(F)(F)F)c2)c1` [Compound 125], for which the “MIC50 E. coli” value against E. Coli ATCC 25922 was determined as 12.5 µg/mL (≈ 24.5 µM). Moreover, in [1], the “MIC50 S. aureus” value was found to be 12.5 µg/mL (≈ 24.5 µM). Also, the “MIC50 E. faecalis” value in data set [2] was determined as 12.5 µg/mL (≈ 24.5 µM). In addition, in data set [3], the “MIC50 P. Aeruginosa” value was determined as 12.5 µg/mL (≈ 24.5 µM). In addition, in [4], the “MIC50 K. Pnuemnoiae” value came to 25 µg/mL (≈ 49 µM). For the same compound, the “EC50 NIH 3T3 (cytotoxicity)” value in the data set on NIH/3T3 cells, CRL-1658 is 26.1 µg/mL (≈ 51.1 µM).

In the case of `NCCCOc1cc(OCCCN)cc(-c2ccc(C(F)(F)c3ccc(-c4cc(OCCCN)cc(OCCCN)c4)cc3)cc2)c1` [Compound 166], the MIC50 in the data set on E. Coli ATCC 25922 (Escherichia coli, ATCC25922, read-out: MIC50 E. coli) worked out at 3.13 µg/mL (≈ 4.82 µM); in [1] (Staphylococcus aureus, ATCC27660, read-out: MIC50 S. aureus), 0.39 µg/mL (≈ 0.601 µM); in [2] (Enterococcus faecalis, ATCC29212, read-out: MIC50 E. faecalis) it was 1.56 µg/mL (≈ 2.4 µM); in [3] (Pseudomonas aeruginosa, ATCC10145, read-out: MIC50 P. Aeruginosa), 6.25 µg/mL (≈ 9.63 µM); in data set [4] (Klebsiella pneumoniae, ATCC13883, read-out: MIC50 K. Pnuemnoiae), 6.25 µg/mL (≈ 9.63 µM). Also, the EC50 at 1 h in data set [5] came to 84 µg/mL (≈ 129 µM); in data set [6], 137 µg/mL (≈ 211 µM).

Usually MIC50 stands for an inhibitory concentration at the 50% level, which refers to growth in some studies and to a panel of isolates in others. One may read the EC50 as the concentration that produces a half-maximal response.
